Consider 17 molecules from ChEMBL document CHEMBL6074643, “Harnessing dual-mode RIPK1 ligands for cross-species anti-necroptosis inhibitor compounds” (Bioorg Med Chem Lett, 2024).

The source made the active and inactive calls. No cut-off for these calls is given here.

Series [1] deals with T1, Receptor-interacting serine/threonine-protein kinase 1 (Homo sapiens, UniProt Q13546).
T1 sequence (Q13546 whole entry): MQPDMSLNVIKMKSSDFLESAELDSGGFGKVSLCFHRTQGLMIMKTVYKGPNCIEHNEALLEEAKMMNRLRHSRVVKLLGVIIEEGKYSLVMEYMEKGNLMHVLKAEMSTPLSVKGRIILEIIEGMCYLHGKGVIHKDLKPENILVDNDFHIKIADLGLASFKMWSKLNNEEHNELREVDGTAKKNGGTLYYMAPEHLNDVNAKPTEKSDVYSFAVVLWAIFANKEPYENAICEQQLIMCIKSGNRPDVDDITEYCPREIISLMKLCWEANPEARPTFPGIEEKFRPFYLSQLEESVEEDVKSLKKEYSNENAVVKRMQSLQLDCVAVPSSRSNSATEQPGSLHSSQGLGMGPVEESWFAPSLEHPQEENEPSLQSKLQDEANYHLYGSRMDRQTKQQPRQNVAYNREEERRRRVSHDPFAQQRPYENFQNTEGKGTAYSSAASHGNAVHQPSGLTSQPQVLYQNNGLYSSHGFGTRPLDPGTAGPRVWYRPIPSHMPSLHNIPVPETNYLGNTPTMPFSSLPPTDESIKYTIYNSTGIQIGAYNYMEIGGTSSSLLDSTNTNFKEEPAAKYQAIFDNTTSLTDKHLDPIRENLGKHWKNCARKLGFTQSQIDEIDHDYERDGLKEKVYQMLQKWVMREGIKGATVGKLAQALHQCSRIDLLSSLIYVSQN
Briefly: Inhibition of human RIPK1 by ADP-Glo kinase assay.

Series [2] is described as follows: Intrinsic clearance in human liver microsomes measured per mg protein. Type of series: ADME, Microsome. Conditions: read-out: CLH.
Series [3] in a line: Intrinsic clearance in mouse liver microsomes measured per mg protein. Type of series: ADME, Microsome. The following applies: read-out: CLH.
A short description of series [4]: Plasma concentration in non-fasted NMRI mouse at 10 mg/kg, po measured after 0.5 hrs by HPLC-MS analysis. Type of series: ADME, organism-based.
Series [5] can be described thus: Plasma concentration in non-fasted NMRI mouse at 10 mg/kg, po measured after 2 hrs by HPLC-MS analysis. Type of series: ADME, organism-based.
Series [6] deals with Mus musculus. Kind of series: In vivo inhibition of RIPK1 in TNF-alpha-induced acute hypothermia NMRI mouse model assessed as decrease in TNF-alpha-induced severe core body temperature loss at 30 mg/kg, po administered 15 mins prior to TNF-alpha challenge and measured at 90 mins interval for 6 hrs. Type of series: functional, organism-based. The following applies: time 375.0 min.

The molecule `CN1C(=O)C(C(=O)Nc2cn(Cc3ccccc3)cn2)CCc2ccc(Br)cc21` (configuration not stated) had a Ki in series [1] of 87.1 nM. Also, the microsomal CLint in series [2] came to 75.7 µL/min/mg; in series [3], 211 µL/min/mg.
In turn, `COC(C)(C)C#Cc1ccc2c(c1)N(C)C(=O)C(C(=O)Nc1cn(Cc3ccccc3)cn1)CC2` (configuration not stated) had a Ki in series [1] of 25.7 nM. Further, the microsomal CLint in series [2] was found to be 194 µL/min/mg; in series [3] it was 210 µL/min/mg.
With `CN1C(=O)C(C(=O)Nc2cn(Cc3ccccc3)cn2)CCc2ccc(C#CC(C)(C)N)cc21` (configuration not stated), the affinity in series [1], expressed as Ki, was 66.1 nM. Moreover, the microsomal CLint was 21.1 µL/min/mg in series [2] and 50.8 µL/min/mg in series [3].
Regarding `CN1C(=O)C(C(=O)Nc2cn(Cc3ccccc3)cn2)CCc2ccc(C#CC3CCOCC3)cc21` (configuration not stated), the affinity in series [1], expressed as Ki, was 22.4 nM. Besides, the microsomal CLint in series [2] came out at 106 µL/min/mg; in series [3] it was 234 µL/min/mg.
Take `CN1C(=O)[C@@H](C(=O)Nc2cn(Cc3ccccc3)cn2)CCc2ccc(C#CC(C)(C)O)cc21`: the Ki in series [1] was 11.5 nM. Further, the microsomal CLint was 7.6 µL/min/mg in series [2] and 33 µL/min/mg in series [3]. Moreover, the concentration at 0.5 h in series [4] amounted to 1340 nM. This molecule also gave a concentration at 2 h in series [5] of 329 nM. In series [6], the inhibition result was “Active”.
Regarding `CN1C(=O)C(C(=O)Nc2cn(Cc3ccccc3)cn2)CCc2cc(C#CC3(O)COC3)ccc21` (configuration not stated), the Ki in series [1] was 191 nM. Besides, the microsomal CLint in series [2] was 18.2 µL/min/mg; in series [3], 42.2 µL/min/mg.
For `CN1C(=O)C(C(=O)Nc2cn(Cc3ccccc3)cn2)CCc2cc(C#CC(C)(C)O)ccc21` (configuration not stated), in that order: 251 nM, 6.6 µL/min/mg and 29.4 µL/min/mg.
Taken in the same sequence, the figures for `CN1C(=O)C(C(=O)Nc2cn(Cc3ccccc3)cn2)CCc2ccc(C#CC3(O)COC3)cc21` (configuration not stated) were 38 nM, 44.4 µL/min/mg and 128 µL/min/mg.
In turn, `CN1C(=O)[C@H](C(=O)Nc2cn(Cc3ccccc3)cn2)CCc2ccc(C#CC(C)(C)O)cc21` gave a Ki in series [1] of 398 nM. Further, the microsomal CLint in series [2] was determined as 32.7 µL/min/mg; in series [3], 202 µL/min/mg.
For `CN1C(=O)C(C(=O)Nc2cn(Cc3ccccc3)cn2)CCc2ccc(C#CC3CC3)cc21` (configuration not stated), in that order: 28.8 nM, 66.5 µL/min/mg and 300 µL/min/mg.
The molecule `CC(C)C#Cc1ccc2c(c1)N(C)C(=O)C(C(=O)Nc1cn(Cc3ccccc3)cn1)CC2` (configuration not stated) had a Ki in series [1] of 75.9 nM. In addition, the results for the microsomal CLint in series [2] and in series [3] were 99 µL/min/mg and 693 µL/min/mg, respectively.
For `CN1C(=O)C(C(=O)Nc2cn(Cc3ccccc3)cn2)CCc2ccc(C#CC(C)(C)O)cc21` (racemic), in that order: 58.9 nM, 26.5 µL/min/mg and 158 µL/min/mg.
For `CN1C(=O)C(C(=O)Nc2cn(Cc3ccccc3)cn2)CCc2cc(Br)ccc21` (configuration not stated), in that order: 363 nM, 31.1 µL/min/mg and 176 µL/min/mg.
`CC#Cc1ccc2c(c1)N(C)C(=O)C(C(=O)Nc1cn(Cc3ccccc3)cn1)CC2` (configuration not stated) had a Ki in series [1] of 35.5 nM. Besides, the microsomal CLint in series [2] is 105 µL/min/mg; in series [3] it was 312 µL/min/mg.
On to `CN1C(=O)[C@@H](NC(=O)c2nnc(Cc3ccccc3)[nH]2)COc2cccnc21` [ECLITASERTIB], for which the Ki in series [1] was 2 nM.
As for `CN1C(=O)C(C(=O)Nc2cn(Cc3ccccc3)cn2)CCc2ccc(C#CC3(C)COC3)cc21` (configuration not stated), in series [1], the Ki is 28.2 nM. The microsomal CLint in series [2] was determined as 124 µL/min/mg; in series [3], 238 µL/min/mg.
For `CC(=O)NC(C)(C)C#Cc1ccc2c(c1)N(C)C(=O)C(C(=O)Nc1cn(Cc3ccccc3)cn1)CC2` (configuration not stated), in that order: 27.5 nM, 7.7 µL/min/mg and 29 µL/min/mg.
